SMILES strings stand for the structures.

For two compounds, IC50 and EC50 results are on record in patent US8426602B2, “Heteroaryl-substituted dicyanopyridines and their use” (Bayer Intellectual Property GmbH, priority 2008, dated 2013).

Common to all, as to assay type: cell-based
The target of assay [1] is T1, adenosine receptor subtype A1 (A1-Gα 16 fusion construct) (Homo sapiens, UniProt P30542).
T1 construct: "an A1-Gα 16 fusion construct
T1 sequence (P30542 1-326): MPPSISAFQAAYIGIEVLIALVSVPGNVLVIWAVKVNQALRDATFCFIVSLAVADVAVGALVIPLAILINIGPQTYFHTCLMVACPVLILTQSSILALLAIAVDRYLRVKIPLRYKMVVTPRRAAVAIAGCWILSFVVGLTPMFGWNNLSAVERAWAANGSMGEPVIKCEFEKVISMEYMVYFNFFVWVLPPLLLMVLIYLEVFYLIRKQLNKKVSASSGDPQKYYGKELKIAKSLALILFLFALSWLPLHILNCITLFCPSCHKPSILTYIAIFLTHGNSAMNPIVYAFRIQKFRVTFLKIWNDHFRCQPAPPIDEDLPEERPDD
Briefly: Indirect determination of adenosine antagonism via gene expression (NFAT luciferase), A1-Gα16 cells. To be noted: CHO K1 A1-Gα16 cells; agonist 25 nM CPA. The source says:
(§1) B-5. Indirect Determination of Adenosine Antagonism Via Gene Expression
For determination of adenosine antagonism on the adenosine receptor subtype A1, once again CHO K1 cells are stably transfected, but this time with a Ca^2+-sensitive reporter construct (NFAT-TA-Luc; Clontech) and an A1-Gα 16 fusion construct. This receptor chimera is, in contrast to the native A1 receptor (Gαi-coupling), coupled to the phospholipase C. The luciferase is expressed here as a function of the cytosolic Ca^2+concentration.
(§2) The permanent cell lines are cultured in DMEM/F12 (Cat.No. BE04-687Q; BioWhittaker) with 10% FCS (fetal calf serum) and various additives (20 ml/liter 1 M HEPES (Cat. No. 15630; Gibco), 20 ml/liter GlutaMAX (Cat. No. 35050-038, Gibco), 14 ml/liter MEM sodium pyruvate (Cat. No. 11360-039; Gibco) 10 ml/liter PenStrep (Cat. No. 15070-063; Gibco)) at 37° C. under 5% carbon dioxide, and split twice weekly.
For testing in the 384-well plate format, the cells are sown at 2000 cells/well in 25 μl/well sowing medium and cultured at 37° C. under 5% carbon dioxide until substance testing. The A2a and A2b cells are sown, 24 h before substance testing, in medium with additives and 5% FCS, the base medium used for the A2a cells being DMEM/F12 and the base medium used for the A2b cells being OptiMEM (Cat. No. 31985-047; Gibco). […] The luciferase activity is detected with a luminescence reader. […]

The target of assay [2] is T2, adenosine receptor subtype A2b (Homo sapiens, UniProt P29275).
T2 construct: expressed in transfected cells; host or cells: CHO K1
T2 sequence (P29275 1-332): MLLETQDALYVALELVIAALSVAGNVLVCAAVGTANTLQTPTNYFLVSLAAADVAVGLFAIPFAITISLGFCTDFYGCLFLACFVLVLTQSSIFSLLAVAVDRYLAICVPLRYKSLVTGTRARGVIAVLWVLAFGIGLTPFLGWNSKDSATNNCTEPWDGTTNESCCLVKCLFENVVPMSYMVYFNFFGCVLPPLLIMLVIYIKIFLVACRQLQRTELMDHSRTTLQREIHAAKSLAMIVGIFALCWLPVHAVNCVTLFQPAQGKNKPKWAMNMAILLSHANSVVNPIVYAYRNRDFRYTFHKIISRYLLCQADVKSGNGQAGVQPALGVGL
Briefly: Indirect determination of adenosine antagonism via gene expression (CRE luciferase), A2b cells. To be noted: table after B-5; CHO K1 A2b cells; agonist 30 nM NECA.
Source text: as §1
(§3) Cells of the permanent line CHO K1 (Chinese Hamster Ovary) are stably transfected with a reporter construct (CRE luciferase) and the cDNA for the adenosine receptor subtype A2a or A2b. A2a or A2b receptors are coupled via Gas proteins to the adenylate cyclase. Through receptor activation, the adenylate cyclase is activated and therefore the cAMP level in the cell increases. Via the reporter construct, a cAMP-dependent promoter, the change in the cAMP level is coupled to luciferase expression.
as §2
(§4) For testing in the 384-well plate format, the cells are sown at 2000 cells/well in 25 μl/well sowing medium and cultured at 37° C. under 5% carbon dioxide until substance testing. […] The luciferase activity is detected with a luminescence reader. […]

The target in assay [3] is T3, adenosine receptor subtype A2a (Homo sapiens, UniProt P29274).
T3 construct: expressed in transfected cells; host or cells: CHO K1
Briefly: Indirect determination of adenosine antagonism via gene expression (CRE luciferase), A2a cells. To be noted: table after B-5; CHO K1 A2a cells; agonist 30 nM NECA.
Source text: as §1, §3, §2, §4

T3 sequence (P29274 whole entry): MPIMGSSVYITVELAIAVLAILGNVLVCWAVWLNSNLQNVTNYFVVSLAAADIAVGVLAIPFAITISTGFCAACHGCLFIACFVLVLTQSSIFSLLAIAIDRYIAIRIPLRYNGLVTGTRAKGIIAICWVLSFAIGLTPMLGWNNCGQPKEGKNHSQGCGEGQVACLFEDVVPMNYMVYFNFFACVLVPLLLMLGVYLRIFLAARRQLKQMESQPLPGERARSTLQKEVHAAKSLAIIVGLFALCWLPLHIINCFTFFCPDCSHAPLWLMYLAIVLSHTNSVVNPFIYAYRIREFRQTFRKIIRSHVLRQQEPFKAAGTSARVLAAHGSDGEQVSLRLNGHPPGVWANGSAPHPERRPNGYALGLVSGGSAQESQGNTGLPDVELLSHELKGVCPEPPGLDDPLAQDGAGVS

`CNC(=O)c1cc(CSc2nc(N)c(C#N)c(-c3cc[nH]n3)c2C#N)ccn1` [Example 15] had an IC50 in assay [1] of 0.5 nM. Besides, the half-maximal effective concentration (EC50) was 40 nM in assay [2] and at least 50000 nM in assay [3].

The compound `CNC(=O)c1cc(CSc2nc(NCCO)c(C#N)c(-c3cc[nH]n3)c2C#N)ccn1` [Example 29] showed a 50% inhibitory concentration (IC50) in assay [1] of 3.6 nM. Moreover, in assay [2], the EC50 was 267 nM.
